Assays:
[1] = test system: southern crabgrass; experiment: Test Example 4: herbicidal effect by soil treatment (Table 19, symbol F); type: in vivo, southern crabgrass (Digitaria ciliaris); settings: amount of applied herbicide 320 g/ha
How it was run: (§1)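 Emulsion of test compound, water-diluted to predetermined amount, sprayed on soil after sowing (seed depth ~1.5 cm, sterilized diluvial soil). Greenhouse, 25–30° C. Effect graded at three weeks post-spray.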

[2] = test system: lambsquarters; experiment: Test Example 5: herbicidal effect by foliage application, plastic box (Table 20, symbol O); type: in vivo, lambsquarters (Chenopodium album); settings: 320 g/ha, foliage application after 14-day growth, evaluated three weeks after application
How it was run: (§2)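 Post-emergence foliar test in sterilized diluvial soil. Compound applied as water-diluted emulsion at a predetermined rate to 14-day-old plants; evaluation at three weeks.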

[3] = test system: redroot pigweed; experiment: Test Example 5: herbicidal effect by foliage application, plastic box (Table 20, symbol N); type: in vivo, redroot pigweed (Amaranthus retroflexus); settings: 320 g/ha, foliage application after 14-day growth, evaluated three weeks after application
How it was run: as §2

[4] = test system: windgrass; experiment: Test Example 4: herbicidal effect by soil treatment (Table 19, symbol L); type: in vivo, windgrass (Apera spica-venti); settings: amount of applied herbicide 320 g/ha
How it was run: as §1

[5] = test system: green foxtail; experiment: Test Example 4: herbicidal effect by soil treatment (Table 19, symbol G); type: in vivo, green foxtail (Setaria viridis); settings: amount of applied herbicide 320 g/ha
How it was run: as §1

[6] = test system: windgrass; experiment: Test Example 5: herbicidal effect by foliage application, plastic box (Table 20, symbol L); type: in vivo, windgrass (Apera spica-venti); settings: 320 g/ha, foliage application after 14-day growth, evaluated three weeks after application
How it was run: as §2

[7] = test system: Italian ryegrass; experiment: Test Example 5: herbicidal effect by foliage application, plastic box (Table 20, symbol K); type: in vivo, Italian ryegrass (Lolium multiflorum); settings: 320 g/ha, foliage application after 14-day growth, evaluated three weeks after application
How it was run: as §2

[8] = test system: lambsquarters; experiment: Test Example 4: herbicidal effect by soil treatment (Table 19, symbol O); type: in vivo, lambsquarters (Chenopodium album); settings: amount of applied herbicide 320 g/ha
How it was run: as §1

[9] = test system: wild oat; experiment: Test Example 4: herbicidal effect by soil treatment (Table 19, symbol I); type: in vivo, wild oat (Avena fatua); settings: amount of applied herbicide 320 g/ha
How it was run: as §1

[10] = test system: barnyard grass; experiment: Test Example 4: herbicidal effect by soil treatment (Table 19, symbol H); type: in vivo, barnyard grass (Echinochloa crus-galli); settings: amount of applied herbicide 320 g/ha
How it was run: as §1

[11] = test system: persian speedwell; experiment: Test Example 5: herbicidal effect by foliage application, plastic box (Table 20, symbol R); type: in vivo, Persian speedwell (Veronica persica); settings: 320 g/ha, foliage application after 14-day growth, evaluated three weeks after application
How it was run: as §2

[12] = test system: chickweed; experiment: Test Example 5: herbicidal effect by foliage application, plastic box (Table 20, symbol P); type: in vivo, common chickweed (Stellaria media); settings: 320 g/ha, foliage application after 14-day growth, evaluated three weeks after application
How it was run: as §2

[13] = test system: chickweed; experiment: Test Example 4: herbicidal effect by soil treatment (Table 19, symbol P); type: in vivo, common chickweed (Stellaria media); settings: amount of applied herbicide 320 g/ha
How it was run: as §1

[14] = test system: velvetleaf; experiment: Test Example 5: herbicidal effect by foliage application, plastic box (Table 20, symbol M); type: in vivo, velvetleaf (Abutilon theophrasti); settings: 320 g/ha, foliage application after 14-day growth, evaluated three weeks after application
How it was run: as §2

[15] = test system: wild oat; experiment: Test Example 5: herbicidal effect by foliage application, plastic box (Table 20, symbol I); type: in vivo, wild oat (Avena fatua); settings: 320 g/ha, foliage application after 14-day growth, evaluated three weeks after application
How it was run: as §2

[16] = test system: green foxtail; experiment: Test Example 5: herbicidal effect by foliage application, plastic box (Table 20, symbol G); type: in vivo, green foxtail (Setaria viridis); settings: 320 g/ha, foliage application after 14-day growth, evaluated three weeks after application
How it was run: as §2

[17] = test system: Chinese sprangletop; experiment: Test Example 3: herbicidal effect by foliage application, Wagner pot (Table 18, symbol D); type: in vivo, chinese sprangletop (Leptochloa chinensis); settings: 320 g/ha
How it was run: (§3)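 Plants were sown in alluvial soil held under 0.1–0.5 cm standing water and grown 14 days in a greenhouse at 25–30 °C. An emulsifiable formulation, water-diluted to the set dose, was then sprayed onto the foliage, and effects were scored three weeks later using previously defined criteria.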

[18] = test system: rice flat sedge; experiment: Test Example 3: herbicidal effect by foliage application, Wagner pot (Table 18, symbol E); type: in vivo, rice flat sedge (Cyperus iria); settings: 320 g/ha
How it was run: as §3

[19] = test system: barnyard grass; experiment: Test Example 3: herbicidal effect by foliage application, Wagner pot (Table 18, symbol H); type: in vivo, barnyard grass (Echinochloa crus-galli); settings: 320 g/ha
How it was run: as §3

[20] = test system: barnyard grass; experiment: Test Example 5: herbicidal effect by foliage application, plastic box (Table 20, symbol H); type: in vivo, barnyard grass (Echinochloa crus-galli); settings: 320 g/ha, foliage application after 14-day growth, evaluated three weeks after application
How it was run: as §2

[21] = test system: blackgrass; experiment: Test Example 5: herbicidal effect by foliage application, plastic box (Table 20, symbol J); type: in vivo, blackgrass (Alopecurus myosuroides); settings: 320 g/ha, foliage application after 14-day growth, evaluated three weeks after application
How it was run: as §2

[22] = test system: redroot pigweed; experiment: Test Example 4: herbicidal effect by soil treatment (Table 19, symbol N); type: in vivo, redroot pigweed (Amaranthus retroflexus); settings: amount of applied herbicide 320 g/ha
How it was run: as §1

[23] = test system: velvetleaf; experiment: Test Example 4: herbicidal effect by soil treatment (Table 19, symbol M); type: in vivo, velvetleaf (Abutilon theophrasti); settings: amount of applied herbicide 320 g/ha
How it was run: as §1

[24] = test system: southern crabgrass; experiment: Test Example 5: herbicidal effect by foliage application, plastic box (Table 20, symbol F); type: in vivo, southern crabgrass (Digitaria ciliaris); settings: 320 g/ha, foliage application after 14-day growth, evaluated three weeks after application
How it was run: as §2

[25] = test system: persian speedwell; experiment: Test Example 4: herbicidal effect by soil treatment (Table 19, symbol R); type: in vivo, Persian speedwell (Veronica persica); settings: amount of applied herbicide 320 g/ha
How it was run: as §1

[26] = test system: blackgrass; experiment: Test Example 4: herbicidal effect by soil treatment (Table 19, symbol J); type: in vivo, blackgrass (Alopecurus myosuroides); settings: amount of applied herbicide 320 g/ha
How it was run: as §1

[27] = test system: Italian ryegrass; experiment: Test Example 4: herbicidal effect by soil treatment (Table 19, symbol K); type: in vivo, Italian ryegrass (Lolium multiflorum); settings: amount of applied herbicide 320 g/ha
How it was run: as §1

SMILES | Herbicidal effect by soil treatment, F: southern crabgrass [1] | herbicidal effect on O: lambsquarters (evaluation grade 0-5) [2] | herbicidal effect on N: redroot pigweed (evaluation grade 0-5) [3] | Herbicidal effect by soil treatment, L: windgrass [4] | Herbicidal effect by soil treatment, G: green foxtail [5] | herbicidal effect on L: windgrass (evaluation grade 0-5) [6] | herbicidal effect on K: Italian ryegrass (evaluation grade 0-5) [7] | Herbicidal effect by soil treatment, O: lambsquarters [8] | Herbicidal effect by soil treatment, I: wild oat [9] | Herbicidal effect by soil treatment, H: barnyard grass [10] | herbicidal effect on R: persian speedwell (evaluation grade 0-5) [11] | herbicidal effect on P: chickweed (evaluation grade 0-5) [12] | Herbicidal effect by soil treatment, P: chickweed [13] | herbicidal effect on M: velvetleaf (evaluation grade 0-5) [14] | herbicidal effect on I: wild oat (evaluation grade 0-5) [15] | herbicidal effect on G: green foxtail (evaluation grade 0-5) [16] | herbicidal effect on Chinese sprangletop (D) [17] | herbicidal effect on rice flat sedge (E) [18] | herbicidal effect on barnyard grass (H) [19] | herbicidal effect on H: barnyard grass (evaluation grade 0-5) [20] | further results
COc1cc(F)ccc1-c1sc2c(Cl)cccc2c1-c1c(O)c(C)nn(C)c1=O [4-033] | 0 (Herbicidal rate of 5% or less (almost no effect)) | 0 (Herbicidal rate of 5% or less (almost no effect)) | 2 (Herbicidal rate of 20% or more and less than 40%) | 0 (Herbicidal rate of 5% or less (almost no effect)) | 0 (Herbicidal rate of 5% or less (almost no effect)) | 1 (Herbicidal rate of 5% or more and less than 20%) | 0 (Herbicidal rate of 5% or less (almost no effect)) | 0 (Herbicidal rate of 5% or less (almost no effect)) | 0 (Herbicidal rate of 5% or less (almost no effect)) | 0 (Herbicidal rate of 5% or less (almost no effect)) | 5 (Herbicidal rate of 90% or more (almost completely withered)) | 5 (Herbicidal rate of 90% or more (almost completely withered)) | 4 (Herbicidal rate of 70% or more and less than 90%) | 3 (Herbicidal rate of 40% or more and less than 70%) | 0 (Herbicidal rate of 5% or less (almost no effect)) | 0 (Herbicidal rate of 5% or less (almost no effect)) | 2 (Herbicidal rate of 20% or more and less than 40%) | 3 (Herbicidal rate of 40% or more and less than 70%) | 4 (Herbicidal rate of 70% or more and less than 90%) | 3 (Herbicidal rate of 40% or more and less than 70%) | herbicidal effect on J: blackgrass (evaluation grade 0-5) [21]: 0 (Herbicidal rate of 5% or less (almost no effect)); Herbicidal effect by soil treatment, N: redroot pigweed [22]: 2 (Herbicidal rate of 20% or more and less than 40%); Herbicidal effect by soil treatment, M: velvetleaf [23]: 0 (Herbicidal rate of 5% or less (almost no effect)); herbicidal effect on F: southern crabgrass (evaluation grade 0-5) [24]: 0 (Herbicidal rate of 5% or less (almost no effect)); Herbicidal effect by soil treatment, R: persian speedwell [25]: 4 (Herbicidal rate of 70% or more and less than 90%); Herbicidal effect by soil treatment, J: blackgrass [26]: 0 (Herbicidal rate of 5% or less (almost no effect)); Herbicidal effect by soil treatment, K: Italian ryegrass [27]: 0 (Herbicidal rate of 5% or less (almost no effect))
Cc1nn(C)c(=O)c(-c2c(-c3ccccc3)sc3c(Cl)cccc23)c1O [4-056] | 0 (Herbicidal rate of 5% or less (almost no effect)) | 3 (Herbicidal rate of 40% or more and less than 70%) | 5 (Herbicidal rate of 90% or more (almost completely withered)) | 3 (Herbicidal rate of 40% or more and less than 70%) | 0 (Herbicidal rate of 5% or less (almost no effect)) | 5 (Herbicidal rate of 90% or more (almost completely withered)) | 4 (Herbicidal rate of 70% or more and less than 90%) | 0 (Herbicidal rate of 5% or less (almost no effect)) | 0 (Herbicidal rate of 5% or less (almost no effect)) | 0 (Herbicidal rate of 5% or less (almost no effect)) | 5 (Herbicidal rate of 90% or more (almost completely withered)) | 5 (Herbicidal rate of 90% or more (almost completely withered)) | 3 (Herbicidal rate of 40% or more and less than 70%) | 5 (Herbicidal rate of 90% or more (almost completely withered)) | 4 (Herbicidal rate of 70% or more and less than 90%) | 1 (Herbicidal rate of 5% or more and less than 20%) | 4 (Herbicidal rate of 70% or more and less than 90%) | 4 (Herbicidal rate of 70% or more and less than 90%) | 4 (Herbicidal rate of 70% or more and less than 90%) | 3 (Herbicidal rate of 40% or more and less than 70%) | herbicidal effect on J: blackgrass (evaluation grade 0-5) [21]: 4 (Herbicidal rate of 70% or more and less than 90%); Herbicidal effect by soil treatment, N: redroot pigweed [22]: 0 (Herbicidal rate of 5% or less (almost no effect)); Herbicidal effect by soil treatment, M: velvetleaf [23]: 0 (Herbicidal rate of 5% or less (almost no effect)); herbicidal effect on F: southern crabgrass (evaluation grade 0-5) [24]: 2 (Herbicidal rate of 20% or more and less than 40%); Herbicidal effect by soil treatment, R: persian speedwell [25]: 0 (Herbicidal rate of 5% or less (almost no effect)); Herbicidal effect by soil treatment, J: blackgrass [26]: 0 (Herbicidal rate of 5% or less (almost no effect)); Herbicidal effect by soil treatment, K: Italian ryegrass [27]: 0 (Herbicidal rate of 5% or less (almost no effect))

— patent publication US20230085307A1, “PYRIDAZINONE COMPOUND AND HERBICIDE” (NISSAN CHEMICAL CORPORATION, priority 2019, published 2023)
